This is an account of results in patent US20110275673A1, “INHIBITORS OF SPHINGOSINE KINASE 1” (priority 2008, published 2011).

Structures are written as SMILES. pIC50: −log10 of the molar value. Counter-ions that a name gives are not always drawn. A value given as a limit tells only on which side of the number the result lay.

The target of the assay is T1, SPHK-1 (Homo sapiens, UniProt Q9NYA1).
T1 construct: purchased BPS Bioscience
T1 sequence (Q9NYA1 whole entry): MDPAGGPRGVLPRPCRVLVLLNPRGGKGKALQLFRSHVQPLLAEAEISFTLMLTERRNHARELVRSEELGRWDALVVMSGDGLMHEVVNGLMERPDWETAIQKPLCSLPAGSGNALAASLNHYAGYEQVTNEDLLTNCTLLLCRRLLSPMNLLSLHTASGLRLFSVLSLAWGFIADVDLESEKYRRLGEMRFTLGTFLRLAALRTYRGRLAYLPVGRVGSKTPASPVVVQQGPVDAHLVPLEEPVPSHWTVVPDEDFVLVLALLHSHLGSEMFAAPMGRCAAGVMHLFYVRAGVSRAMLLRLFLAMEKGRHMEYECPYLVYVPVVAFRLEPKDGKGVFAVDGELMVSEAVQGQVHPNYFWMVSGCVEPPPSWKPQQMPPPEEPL
Description: Reporter Assay: sphingosine kinase conversion of fluorescein-labeled sphingosine, read on Lab Chip 3000. The conditions noted are these: 2 μM Fl-sphingosine, 25 μM ATP, 300 ng/ml SK1, 1 hour at room temperature; from percent conversion of substrate to product; read-out: SPHK-1 IC50 (n =). The assay is classed as biochemical. How it is done: Sphingosine kinase is a 49 kDa enzyme that catalyzes the formation of sphingosine-1-phosphate (S-1-P) from sphingosine.
Fluorescein labeled sphingosine was obtained from Echelon Biosciences (S-100F). Buffer reagents (1 M Hepes, 10 triton x-100, 100% glycerol, dithiothreitol 1 M MgCl2, ATP, 500 mM EDTA and DMSO) were purchased from Sigma. Coating reagent (CR-3), was obtained from Caliper Life Sciences.
0.05% Triton X-100, 2.5% glycerol, 0.1% CR-3, and 0,6% DMSO. Termination butler included 100 mM Hepes (pH 7.5), 40 mM EDTA, 0.05% Triton X-100, 2.5% glycerol, 0.3% CR-3, and 0.6% DMSO.
All assay components were made in reaction buffer. […] The assaylvas allowed to incubate at room temperature sealed and protected from light for 1 hour.
After 1 hour, 10 μl of termination buffer was added to terminate, the reaction, and the plate was read on a Lab Chip 3000. The plate was read for one cycle. The Lab Chip separated substrate and product based on charge.
Results were calculated based on percent conversion of substrate to product using the following formula: […]
Percent inhibition and IC50's for compounds of the invention were determined using the percent conversion values obtained horn the Lab Chip.
On the technique in general: Reporter assays use an easily measured gene product as a stand-in for the process of interest.
On to `CCCCCCCCc1ccc(CCNC(=O)[C@H]2NCC[C@@H]2O)cc1` [Example 44, (2S,3S)-3-hydroxy-N-(4-octylphenethyl) pyrrolidine-2-carboxamide], for which the pIC50 was 5.19.

Turning to `CCCCCCOCc1ccc(NC(=O)[C@@H](N)[C@@H](C)O)cc1` [Example 15, (2S,3R)-2-Amino-N-(4-(hexyloxymethyl)phenyl)-3-hydroxy-butanamide], the pIC50 was 5.09.

For the compound `CCCCCCCCc1cc2cc(CNC(=O)[C@H]3NCC[C@@H]3O)cc(F)c2o1` [Example 118, (2S,3S)—N-((7-Fluoro-2-octylbenzofuran-5-yl)methyl)-3-hydroxypyrrolidine-2-carboxamide], the pIC50 is 6.34.

In the case of `CCCCCCCCOCc1ccc(NC(=O)[C@H]2NCC[C@@H]2O)cc1` [Example 21, (2S,3S)-3-Hydroxy-N-(4-(octyloxymethyl)phenyl) pyrrolidine-2-carboxamide], the pIC50 was 8.31.

Regarding `CCCCCCCc1cc2cc(CNC(=O)[C@H]3NCC[C@@H]3O)ccc2o1` [Example 113, (2S,3S)—N-((2-Heptylbenzofuran-5-yl)methyl)-3-hydroxypyrrolidine-2-carboxamide], the pIC50 was 6.80.

Consider `O=C(NCc1ccc(CCCCCOc2ccc(F)cc2)cc1)[C@H]1NCC[C@@H]1O` [Example 28, (2S,3S)-N-(4-(5-(4-Fluorophenoxy)pentyl)benzyl)-3-hydroxy-pyrrolidine-2-carboxamide], for which the pIC50 was 5.33.

For `CCCCCCCCc1ccc(NC(=O)[C@@H](NCC2CCCCC2)[C@H](C)O)cc1` [Example 48, (2S,3S)-2-(cyclohexyl-methyl-amino)-3-hydroxy-N-(4-octylphenyl) butanamide], the pIC50 was less than 6.00.

Regarding `CCCCCCCCc1ccc([C@H](C)NC(=O)[C@H]2NCC[C@@H]2O)cc1` [Example 27, (2S,3S)-3-Hydroxy-N-((S)-1-(4-octylphenyl)ethyl) pyrrolidine-2-carboxamide], the pIC50 was 6.72.

As to `CCCCC(=O)CCCCCc1ccc(NC(=O)[C@@H](N)[C@@H](C)O)cc1` [Example 33, (2S,3R)-2-amino-3-hydroxy-N-(4-(6-oxodecyl)phenyl) butanamide], the pIC50 was 5.21.

Regarding `CCCCCCCc1ccc(CNC(=O)[C@H]2NCC[C@@H]2O)cc1` [Example 37, (2S,3S)-N-(4-heptylbenzyl)-3-hydroxy-pyrrolidine-2-carboxamide], the pIC50 is 6.33.

For the compound `O=C(NCc1ccc2oc(C3CCCCC3)cc2c1)[C@H]1NCC[C@@H]1O` [Example 115, (2S,3S)—N-((2-Cyclohexylbenzofuran-5-yl)methyl)-3-hydroxypyrrolidine-2-carboxamide], the pIC50 is 5.92.

`CCCCCCSCCCCc1ccc(NC(=O)[C@H]2NCC[C@@H]2O)cc1` [Example 41, (2S,3S)-N-(4-(4-(hexylthio)butyl)phenyl)-3-hydroxy-pyrrolidine-2-carboxamide]: the pIC50 is 8.70.

As for `CCCCCCSCc1ccc(NC(=O)[C@H]2NCC[C@@H]2O)cc1` [Example 39, (2S,3S)-N-(4-(hexylthiomethyl)phenyl)-3-hydroxy-pyrrolidine-2-carboxamide], the pIC50 is 6.96.

Take `CCCCCCCCCCCCc1ccc(NC(=O)[C@@H](N)[C@@H](C)O)cc1` [Example 8, (2S,3R)-2-Amino-N-(4-dodecylphenyl)-3-hydroxy-butanamide]: the negative logarithm of the IC50 (pIC50) is 6.72.

In the case of `CCCCCCCCc1ccc(NC[C@H]2NCC[C@@H]2O)cc1` [Example 9, (2R,3S)-2-((4-Octylphenyl-amino)methyl) pyrrolidin-3-ol], the pIC50 is 6.13.

For the compound `Cn1nc(-c2ccc(CNC(=O)[C@H]3NCC[C@@H]3O)cc2)nc1C1CCCCC1` [Example 63, (2S,3S)—N-(4-(5-Cyclohexyl-1-methyl-1H-1,2,4-triazol-3-yl)benzyl)-3-hydroxypyrrolidine-2-carboxamide], the pIC50 is 5.68.

`CCCCCCCCc1ccc(NC[C@@H](N)CO)cc1` [Example 10, (R)-2-Amino-3-(4-octylphenyl-amino) propan-1-ol]: the pIC50 was 5.30.

As for `CCCCCCCCc1ccc(-c2ccc(NC[C@@H](N)[C@@H](C)O)cc2)cc1` [Example 60, (2R,3R)-3-Amino-4-(4′-octylbiphenyl-4-ylamino)butan-2-ol], the pIC50 is 5.64.

For the compound `CCCCCCCc1ccc(-c2noc(CNC(=O)[C@H]3NCC[C@@H]3O)n2)cc1` [Example 77, (2S,3S)—N-((3-(4-Heptylphenyl)-1,2,4-oxadiazol-5-yl)methyl)-3-hydroxypyrrolidine-2-carboxamide], the pIC50 was 6.66.

In the case of `CCCCCCCCc1cc2cc(CNC(=O)[C@H]3NCC[C@@H]3O)ccc2[nH]1` [Example 108, (2S,3S)-3-Hydroxy-N-((2-octyl-1H-indol-5-yl)methyl)pyrrolidine-2-carboxamide], the pIC50 was 5.03.

Consider `CCCCCCCOc1ccc(NC(=O)[C@@H](N)[C@@H](C)O)cc1` [Example 12, (2S,3R)-2-Amino-N-(4-(heptyloxy)phenyl)-3-hydroxy-butanamide], for which the pIC50 is 5.82.

On to `CCCCCCCCc1ccc(NC(=O)[C@H]2NC[C@H](O)[C@@H]2O)cc1` [Example 20, (2S,3R,4S)-3,4-Dihydroxy-N-(4-octylphenyl) pyrrolidine-2-carboxamide], for which the pIC50 is 5.08.

Take `CCCCCCCCCc1ccc(NC(=O)[C@@H](N)[C@@H](C)O)cc1` [Example 14, (2S,3R)-2-Amino-3-hydroxy-N-(4-nonylphenyl) butanamide]: the pIC50 is 6.74.

In the case of `C[C@@H](O)[C@H](N)C(=O)Nc1ccc(CCCCCCCOc2ccc(F)cc2)cc1` [Example 17, (2S,3R)-2-Amino-N-(4-(7-(4-fluorophenoxy)heptyl)phenyl)-3-hydroxy-butanamide], the pIC50 was 5.44.

As to `CCCCCCCCc1cc2cc(CNC(=O)[C@H]3NCC[C@@H]3O)c(F)cc2o1` [Example 119, (2S,3S)—N-((6-Fluoro-2-octylbenzofuran-5-yl)methyl)-3-hydroxypyrrolidine-2-carboxamide], the pIC50 is 6.15.

Consider `CC(C)Cc1ccc(-c2nc(-c3ccc(CNC(=O)[C@H]4NCC[C@@H]4O)cc3)no2)cc1` [Example 78, (2S,3S)-3-Hydroxy-N-(4-(5-(4-isobutylphenyl)-1,2,4-oxadiazol-3-yl)benzyl)pyrrolidine-2-carboxamide], for which the pIC50 was 5.36.

In the case of `CCCCCCSCCc1ccc(NC(=O)[C@H]2NCC[C@@H]2O)cc1` [Example 40, (2S,3S)-N-(4-(2-(hexylthio)ethyl)phenyl)-3-hydroxy-pyrrolidine-2-carboxamide], the pIC50 is 8.15.

As for `CCCCCCCCc1ccc(NC(=O)[C@H](CO)NC)cc1` [Example 51, (S)-3-Hydroxy-2-(methylamino)-N-(4-octylphenyl) propanamide], the pIC50 is 5.55.

In the case of `CCCCCCCCc1ccc(NC(=O)[C@H](N)CO)cc1` [Example 3, (R)-2-Amino-3-hydroxy-N-(4-octylphenyl) propanamide], the pIC50 is 5.30.

Take `CCCc1ccc(-c2nc(-c3ccc(CNC(=O)[C@H]4NCC[C@@H]4O)cc3)no2)cc1` [Example 81, (2S,3S)-3-Hydroxy-N-(4-(5-(4-propylphenyl)-1,2,4-oxadiazol-3-yl)benzyl)pyrrolidine-2-carboxamide]: the pIC50 was 5.74.

For `CCCCCCCCc1ccc(O)c(NC(=O)[C@H]2NCC[C@@H]2O)c1` [Example 58, hydrochloride], the pIC50 is 5.44.

As to `CCCCCCCCc1cc2c(F)c(CNC(=O)[C@H]3NCC[C@@H]3O)ccc2o1` [Example 121, (2S,3S)—N-((4-Fluoro-2-octylbenzofuran-5-yl)methyl)-3-hydroxypyrrolidine-2-carboxamide], the pIC50 was 6.29.

For `CC(C)CCCCCCc1ccc(NC(=O)[C@@H](N)[C@@H](C)O)cc1` [Example 16, (2S,3R)-2-Amino-3-hydroxy-N-(4-(7-methyloctyl)phenyl) butanamide], the pIC50 is 6.82.

As for `O=C(NCc1ccc(-n2cc(CCc3ccccc3)cn2)cc1)[C@H]1NCC[C@@H]1O` [Example 69, (2S,3S)-3-Hydroxy-N-(4-(4-phenethyl-1H-pyrazol-1-yl)benzyl)pyrrolidine-2-carboxamide], the pIC50 is 7.19.

On to `CCCCCCCCc1ccc(NC(=O)[C@H](N)[C@H](C)O)cc1` [Example 30, (2R,3S)-2-Amino-3-hydroxy-N-(4-octylphenyl) butanamide], for which the pIC50 was 5.68.

On to `CCCCCCCCc1ccc(NC(=O)[C@H]2NCC[C@@H]2O)cn1` [Example 26, (2S,3S)-3-Hydroxy-N-(6-octylpyridin-3-yl) pyrrolidine-2-carboxamide], for which the pIC50 is 5.52.

For `C[C@@H](O)[C@H](N)C(=O)Nc1ccc(CCCCCOc2ccc(F)cc2)cc1` [Example 22, (2S,3R)-2-Amino-N-(4-(5-(4-fluorophenoxy)pentyl)phenyl)-3-hydroxy-butanamide], the pIC50 was 5.49.

Take `CCCCCCCCc1ccc(NC(=O)[C@@H](N)CO)cc1` [Example 4, (S)-2-Amino-3-hydroxy-N-(4-octylphenyl) propanamide]: the pIC50 is 5.37.

Take `CCCCCCCCc1ccc(NC(=O)[C@@H](N)[C@H](C)O)cc1` [Example 32, (2S,3S)-2-Amino-3-hydroxy-N-(4-octylphenyl) butanamide]: the pIC50 was 5.96.

For orientation: pIC50 means the negative decadic logarithm of the IC50, by convention in mol/L.
